Data taken from US12344610B2, “APOL1 inhibitors and methods of use” (Maze Therapeutics, Inc., priority 2022, dated 2025).

System: Trypanosoma brucei Lister 427 VSG221 with APOL1 G0 recombinant protein
Test: APOL1 G0 trypanosome cell rescue assay (Example B5)
Type: cell-based
Conditions: Trypanosoma brucei, 20 h, read-out: APOL1 G0 Trypanosome Rescue EC50, Trypanosoma brucei Lister 427 VSG221 with APOL1 G0 recombinant protein, 20 hours, CellTiter-Glo; geometric mean of at least 2 assay runs; † = single assay run
In short: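 Viability read by CellTiter-Glo luminescence after 20 h co-incubation (37° C, 5% CO2) of 250 trypanosomes/well in modified HMI-9 with test compound (duplicate 11-point, 2-fold dilutions, 0.4% DMSO) and APOL1 protein, […]. Protein: mature residues 28-398, E. coli inclusion-body refolded, tag cleaved, in DDM.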

First: C[C@@H](COc1ccc(S(C)(=O)=O)cc1)N1CCC2(CC1)C(=O)Nc1ccc(Cl)cc12 (single isomer, unassigned) [Compound 10]
Second: C[C@@H](COc1ccc(S(C)(=O)=O)cc1)N1CCC2(CC1)C(=O)Nc1ccccc12 (single isomer, unassigned) [Compound 12]
The EC50 of the first is 5.5-fold lower: 351 nM for the first, 1930 nM for the second.

Going from `C[C@@H](CN1CCC2(CC1)C(=O)Nc1ccccc12)Oc1ccc(S(C)(=O)=O)cc1` (single isomer, unassigned) [Compound 13] to `CN=S(C)(=O)c1ccc(OCCN2CCC3(CC2)C(=O)Nc2ccc(Cl)cc23)cc1` (single isomer, unassigned) [Compound 148, (S) or (R)-5-chloro-1′-(2-{4-[methyl(methylimino)oxo-λ^6-sulfanyl]phenoxy}ethyl)-1,2-dihydrospiro[indole-3,4′-piperidin]-2-one], the EC50 falls from > 4000 nM to 140 nM. The second is the more potent here.

Going from `N#Cc1ccc2c(c1)C1(CCN(CCOc3ccc4c(c3)CCN3C(=O)NCC43)CC1)C(=O)N2` (single isomer, unassigned) [Compound 120, (R) or (S)-2-oxo-1′-[2-({3-oxo-1H,2H,3H,5H,6H,10bH-imidazo[4,3-a]isoquinolin-8-yl}oxy)ethyl]-1,2-dihydrospiro[indole-3,4′-piperidine]-5-carbonitrile] to `O=C1CCC2c3ccc(OCCN4CCC5(CC4)C(=O)Nc4ccc(Cl)cc45)cc3CCN12` (single isomer, unassigned) [Compound 122, (S) or (R)-5-chloro-1′-[2-({3-oxo-1H,2H,3H,5H,6H,10bH-pyrrolo[2,1-a]isoquinolin-8-yl}oxy)ethyl]-1,2-dihydrospiro[indole-3,4′-piperidin]-2-one], the EC50 falls from 807 nM to 252 nM (3.2-fold). The second is the more potent here.

`CC(c1ccc(OCCN2CCC3(CC2)C(=O)Nc2ccc(C#N)cc23)cc1)S(C)(=O)=O` (single isomer, unassigned) [Compound 134, (S) or (R)-1′-{2-[4-(1-methanesulfonylethyl)phenoxy]ethyl}-2-oxo-1,2-dihydrospiro[indole-3,4′-piperidine]-5-carbonitrile] and `CN=S(C)(=O)c1ccc(OCCN2CCC3(CC2)C(=O)Nc2ccc(C#N)cc23)cc1` (single isomer, unassigned) [Compound 151, (S) or (R)-1′-(2-{4-[methyl(methylimino)oxo-λ^6-sulfanyl]phenoxy}ethyl)-2-oxo-1,2-dihydrospiro[indole-3,4′-piperidine]-5-carbonitrile] are within 1.5-fold of each other in EC50: 851 nM for the first, 1040 nM for the second.

Going from `CC(c1c(F)cc(OCCN2CCC3(CC2)C(=O)Nc2ccc(C#N)cc23)cc1F)S(C)(=O)=O` (single isomer, unassigned) [Compound 138, (S) or (R)-1′-{2-[3,5-difluoro-4-(1-methanesulfonylethyl)phenoxy]ethyl}-2-oxo-1,2-dihydrospiro[indole-3,4′-piperidine]-5-carbonitrile] to `CC(c1c(F)cc(OCCN2CCC3(CC2)C(=O)Nc2ccc(Cl)cc23)cc1F)S(C)(=O)=O` (single isomer, unassigned) [Compound 142, (S) or (R)-5-chloro-1′-{2-[3,5-difluoro-4-(1-methanesulfonylethyl)phenoxy]ethyl}-1,2-dihydrospiro[indole-3,4′-piperidin]-2-one], the EC50 falls from 326 nM to 63.5 nM (5.1-fold). The second is the more potent here.

`CS(=O)(=O)c1ccc(OCCN2CCC3(CC2)C(=O)Nc2c(C#N)cc(Cl)cc23)cc1` [Compound 9, 5-chloro-1′-[2-(4-methanesulfonylphenoxy)ethyl]-2-oxo-1,2-dihydrospiro[indole-3,4′-piperidine]-7-carbonitrile] was tested, and the EC50 was > 4000 nM.

Same assay, conditions: read-out: APOL1 G0 Trypanosome Rescue EC50; Trypanosoma brucei Lister 427 VSG221 with APOL1 G0 recombinant protein, 20 hours, CellTiter-Glo; geometric mean of at least 2 assay runs; † = single assay run

In order of falling EC50:
1. CC(c1ccc(OCCN2CCC3(CC2)C(=O)Nc2ccc(C#N)cc23)cc1)S(C)(=O)=O (single isomer, unassigned) [Compound 135, (R) or (S)-1′-{2-[4-(1-methanesulfonylethyl)phenoxy]ethyl}-2-oxo-1,2-dihydrospiro[indole-3,4′-piperidine]-5-carbonitrile]  1080 nM
2. CN=S(C)(=O)c1ccc(OCCN2CCC3(CC2)C(=O)Nc2ccc(C#N)cc23)cc1 (single isomer, unassigned) [Compound 152, (R) or (S)-1′-(2-{4-[methyl(methylimino)oxo-λ^6-sulfanyl]phenoxy}ethyl)-2-oxo-1,2-dihydrospiro[indole-3,4′-piperidine]-5-carbonitrile]  1050 nM
3. CC(c1c(F)cc(OCCN2CCC3(CC2)C(=O)Nc2ccc(C#N)cc23)cc1F)S(C)(=O)=O (single isomer, unassigned) [Compound 139, (R) or (S)-1′-{2-[3,5-difluoro-4-(1-methanesulfonylethyl)phenoxy]ethyl}-2-oxo-1,2-dihydrospiro[indole-3,4′-piperidine]-5-carbonitrile]  335 nM
4. O=C1NCC2c3ccc(OCCN4CCC5(CC4)C(=O)Nc4ccc(Cl)cc45)cc3CCN12 (single isomer, unassigned) [Compound 117, (R) or (S)-5-chloro-1′-[2-({3-oxo-1H,2H,3H,5H,6H,10bH-imidazo[4,3-a]isoquinolin-8-yl}oxy)ethyl]-1,2-dihydrospiro[indole-3,4′-piperidin]-2-one]  309 nM
5. O=C1Nc2ccc(Cl)cc2C12CCN(CCOc1ccc(C3CCCS3(=O)=O)cc1)CC2 (single isomer, unassigned) [Compound 177, (R) or (S)-2-[4-(2-{5-chloro-2-oxo-1,2-dihydrospiro[indole-3,4′-piperidin]-1′-yl}ethoxy)phenyl]-1λ^6-thiolane-1,1-dione]  260 nM
6. O=C1CCC2c3ccc(OCCN4CCC5(CC4)C(=O)Nc4ccc(Cl)cc45)cc3CCN12 (single isomer, unassigned) [Compound 123, (R) or (S)-5-chloro-1′-[2-({3-oxo-1H,2H,3H,5H,6H,10bH-pyrrolo[2,1-a]isoquinolin-8-yl}oxy)ethyl]-1,2-dihydrospiro[indole-3,4′-piperidin]-2-one]  178 nM
7. O=C1NCC2c3ccc(OCCN4CCC5(CC4)C(=O)Nc4ccc(Cl)cc45)cc3CCN12 (single isomer, unassigned) [Compound 116, (S) or (R)-5-chloro-1′-[2-({3-oxo-1H,2H,3H,5H,6H,10bH-imidazo[4,3-a]isoquinolin-8-yl}oxy)ethyl]-1,2-dihydrospiro[indole-3,4′-piperidin]-2-one]  149 nM
8. O=C1Nc2ccc(Cl)cc2C12CCN(CCOc1ccc(C3CCCS3(=O)=O)cc1)CC2 (single isomer, unassigned) [Compound 176, (S) or (R)-2-[4-(2-{5-chloro-2-oxo-1,2-dihydrospiro[indole-3,4′-piperidin]-1′-yl}ethoxy)phenyl]-1λ^6-thiolane-1,1-dione]  120 nM
9. CN=S(C)(=O)c1ccc(OCCN2CCC3(CC2)C(=O)Nc2ccc(Cl)cc23)cc1 (single isomer, unassigned) [Compound 149, (R) or (S)-5-chloro-1′-(2-{4-[methyl(methylimino)oxo-λ^6-sulfanyl]phenoxy}ethyl)-1,2-dihydrospiro[indole-3,4′-piperidin]-2-one]  117 nM
10. CC(c1c(F)cc(OCCN2CCC3(CC2)C(=O)Nc2ccc(Cl)cc23)cc1F)S(C)(=O)=O (single isomer, unassigned) [Compound 143, (R) or (S)-5-chloro-1′-{2-[3,5-difluoro-4-(1-methanesulfonylethyl)phenoxy]ethyl}-1,2-dihydrospiro[indole-3,4′-piperidin]-2-one]  41.1 nM
